Results from PubChem BioAssay (NCI).
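Each compound was tested at five concentrations against cells in 96-well plates for 48 hours. TGI is the concentration that stops growth completely.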

Assays:
Assay in all cases: inhibition of tumour cell growth, NCI panel, 48 h
[1] = test system: NCI-H460 lung
[2] = test system: HL-60(TB) leukemia
[3] = test system: SR leukemia
[4] = test system: M14 melanoma
[5] = test system: XF 498 CNS
[6] = test system: HOP-62 NSCLC
[7] = test system: SN12C renal
[8] = test system: A498 renal
[9] = test system: UACC-257 melanoma
[10] = test system: UO-31 renal
[11] = test system: CAKI-1 renal
[12] = test system: MALME-3M melanoma
[13] = test system: OVCAR-8 ovarian
[14] = test system: K-562 leukemia
[15] = test system: SW-620 colon
[16] = test system: KM12 colon
[17] = test system: SK-MEL-28 melanoma
[18] = test system: DMS 114 small cell lung
[19] = test system: COLO 205 colon
[20] = test system: NCI-H226 lung
[21] = test system: IGROV1 ovarian
[22] = test system: ACHN renal
[23] = test system: LOX IMVI melanoma
[24] = test system: DLD-1 colon
[25] = test system: 786-0 renal
[26] = test system: HOP-92 NSCLC
[27] = test system: TK-10 renal
[28] = test system: HCC-2998 colon
[29] = test system: SNB-78 CNS
[30] = test system: SK-OV-3 ovarian
[31] = test system: SNB-75 CNS
[32] = test system: SNB-19 CNS
[33] = test system: SF-268 CNS
[34] = test system: HCT-116 colon
[35] = test system: LXFL 529 NSCLC
[36] = test system: SF-539 CNS
[37] = test system: OVCAR-3 ovarian
[38] = test system: RXF-631 renal
[39] = test system: KM20L2 colon
[40] = test system: NCI-H23 lung
[41] = test system: EKVX NSCLC
[42] = test system: M19-MEL melanoma
[43] = test system: HT29 colon
[44] = test system: A549 NSCLC
[45] = test system: SK-MEL-5 melanoma
[46] = test system: CCRF-CEM leukemia
[47] = test system: UACC-62 melanoma
[48] = test system: U251 CNS
[49] = test system: SF-295 CNS
[50] = test system: OVCAR-4 ovarian
[51] = test system: HOP-18 NSCLC
[52] = test system: RXF 393 renal
[53] = test system: NCI-H522 lung
[54] = test system: DMS 273 small cell lung
[55] = test system: HCT-15 colon
[56] = test system: OVCAR-5 ovarian
[57] = test system: SK-MEL-2 melanoma
[58] = test system: RPMI-8226 leukemia
[59] = test system: MOLT-4 leukemia

## COc1nc2c(nc(N)n2C2OC(CO)C(O)C(O)C2O)c(=O)n1C (stereo unspecified)
[1]
  TGI: > 100 µM
[2]
  TGI: > 100 µM
[3]
  TGI: > 100 µM
[4]
  TGI: > 100 µM
[5]
  TGI: > 100 µM
[6]
  TGI: > 100 µM
[7]
  TGI: > 100 µM
[8]
  TGI: > 100 µM
[9]
  TGI: > 100 µM
[10]
  TGI: > 100 µM
[11]
  TGI: > 100 µM
[12]
  TGI: > 100 µM
[13]
  TGI: > 100 µM
[14]
  TGI: > 100 µM
[15]
  TGI: > 100 µM
[16]
  TGI: > 100 µM
[17]
  TGI: > 100 µM
[18]
  TGI: > 100 µM
[19]
  TGI: > 100 µM
[20]
  TGI: > 100 µM
[21]
  TGI: > 100 µM
[22]
  TGI: > 100 µM
[23]
  TGI: > 100 µM
[24]
  TGI: > 100 µM
[25]
  TGI: > 100 µM
[26]
  TGI: > 100 µM
[27]
  TGI: > 100 µM
[28]
  TGI: > 100 µM
[29]
  TGI: > 100 µM
[30]
  TGI: > 100 µM
[31]
  TGI: > 100 µM
[32]
  TGI: > 100 µM
[33]
  TGI: > 100 µM
[34]
  TGI: > 100 µM
[35]
  TGI: > 100 µM
[36]
  TGI: > 100 µM
[37]
  TGI: > 100 µM
[38]
  TGI: > 100 µM
[39]
  TGI: > 100 µM
[40]
  TGI: > 100 µM
[41]
  TGI: > 100 µM
[42]
  TGI: > 100 µM
[43]
  TGI: > 100 µM
[44]
  TGI: > 100 µM
[45]
  TGI: > 100 µM
[46]
  TGI: > 100 µM
[47]
  TGI: > 100 µM
[48]
  TGI: > 100 µM
[49]
  TGI: > 100 µM
[50]
  TGI: > 100 µM
[51]
  TGI: > 100 µM
[52]
  TGI: > 100 µM
[53]
  TGI: > 100 µM

## CCCCCCCCCCCCCC(=O)OCC1OC(OC)C(NC(=O)N(CCCl)N=O)C(O)C1O (stereo unspecified)
[1]
  TGI: 25.1 µM
[54]
  TGI: 47.1 µM
[3]
  TGI: 26.7 µM
[4]
  TGI: 39.6 µM
[5]
  TGI: 36.7 µM
[55]
  TGI: > 100 µM
[6]
  TGI: 75.9 µM
[56]
  TGI: 91.1 µM
[7]
  TGI: 76.3 µM
[8]
  TGI: 65.6 µM
[9]
  TGI: 30.2 µM
[10]
  TGI: 51.7 µM
[11]
  TGI: > 100 µM
[12]
  TGI: 56.8 µM
[13]
  TGI: 61.1 µM
[14]
  TGI: 56.8 µM
[15]
  TGI: 30.9 µM
[57]
  TGI: 71.2 µM
[16]
  TGI: 64.4 µM
[17]
  TGI: 59.4 µM
[18]
  TGI: 57.3 µM
[19]
  TGI: 98.5 µM
[20]
  TGI: 75.7 µM
[21]
  TGI: > 100 µM
[22]
  TGI: 49.1 µM
[23]
  TGI: 25.7 µM
[24]
  TGI: 81.3 µM
[25]
  TGI: 17 µM
[27]
  TGI: 90.7 µM
[28]
  TGI: 65.6 µM
[29]
  TGI: 90.7 µM
[31]
  TGI: 73.5 µM
[32]
  TGI: > 100 µM
[58]
  TGI: 42.6 µM
[33]
  TGI: 40.1 µM
[34]
  TGI: 38.2 µM
[35]
  TGI: 38.8 µM
[36]
  TGI: 12.9 µM
[37]
  TGI: 53.2 µM
[38]
  TGI: 53.9 µM
[39]
  TGI: 52.2 µM
[40]
  TGI: 28.6 µM
[43]
  TGI: 50.4 µM
[44]
  TGI: 58.2 µM
[45]
  TGI: 45.1 µM
[46]
  TGI: 30.2 µM
[47]
  TGI: 20.1 µM
[48]
  TGI: 52.4 µM
[50]
  TGI: 50.7 µM
[59]
  TGI: 29.4 µM
[51]
  TGI: > 100 µM
[52]
  TGI: 32.1 µM

## O=S1(=O)CSc2ccc3ccccc3c2-c2c1ccc1ccccc21
[1]
  TGI: > 100 µM
[54]
  TGI: > 100 µM
[2]
  TGI: > 100 µM
[3]
  TGI: > 100 µM
[4]
  TGI: > 100 µM
[5]
  TGI: > 100 µM
[6]
  TGI: > 100 µM
[56]
  TGI: > 100 µM
[7]
  TGI: > 100 µM
[9]
  TGI: > 100 µM
[10]
  TGI: > 100 µM
[11]
  TGI: > 100 µM
[12]
  TGI: > 100 µM
[13]
  TGI: > 100 µM
[14]
  TGI: > 100 µM
[15]
  TGI: > 100 µM
[16]
  TGI: > 100 µM
[17]
  TGI: > 100 µM
[18]
  TGI: > 100 µM
[19]
  TGI: > 100 µM
[21]
  TGI: > 100 µM
[22]
  TGI: > 100 µM
[23]
  TGI: > 100 µM
[24]
  TGI: > 100 µM
[25]
  TGI: > 100 µM
[26]
  TGI: > 100 µM
[27]
  TGI: > 100 µM
[28]
  TGI: > 100 µM
[29]
  TGI: > 100 µM
[31]
  TGI: > 100 µM
[32]
  TGI: > 100 µM
[33]
  TGI: > 100 µM
[34]
  TGI: > 100 µM
[35]
  TGI: > 100 µM
[36]
  TGI: > 100 µM
[37]
  TGI: > 100 µM
[38]
  TGI: > 100 µM
[40]
  TGI: > 100 µM
[42]
  TGI: > 100 µM
[43]
  TGI: > 100 µM
[44]
  TGI: > 100 µM
[45]
  TGI: > 100 µM
[46]
  TGI: > 100 µM
[47]
  TGI: > 100 µM
[48]
  TGI: > 100 µM
[49]
  TGI: > 100 µM
[50]
  TGI: > 100 µM
[59]
  TGI: > 100 µM
[51]
  TGI: > 100 µM
[52]
  TGI: > 100 µM
[53]
  TGI: > 100 µM
